Reference: ChEMBL document CHEMBL4507297, “Data for DCP probe PF-04457845” (2021)

Columns and labels:
[1] = system: Tyrosine-protein kinase ABL1 (Homo sapiens), P00519 [F317I]; conditions: Compound concentration 1000.0 nM
[2] = system: Tyrosine-protein kinase ABL1 (Homo sapiens), P00519 [F317L]; conditions: Compound concentration 1000.0 nM
[3] = biological target: Aurora kinase C (Homo sapiens) (UniProt Q9UQB9); conditions: Compound concentration 1000.0 nM
[4] = biological target: Serine/threonine-protein kinase B-raf (Homo sapiens) (UniProt P15056); conditions: Compound concentration 1000.0 nM
[5] = biological target: Calcium/calmodulin-dependent protein kinase type 1B (Homo sapiens) (UniProt Q6P2M8); conditions: Compound concentration 1000.0 nM
[6] = biological target: Cyclin-dependent kinase 7 (Homo sapiens) (UniProt P50613); conditions: Compound concentration 1000.0 nM
[7] = biological target: Cyclin-dependent kinase 9 (Homo sapiens) (UniProt P50750); conditions: Compound concentration 1000.0 nM
[8] = biological target: Casein kinase I isoform gamma-1 (Homo sapiens) (UniProt Q9HCP0); conditions: Compound concentration 1000.0 nM
[9] = biological target: Casein kinase II subunit alpha (Homo sapiens) (UniProt P68400); conditions: Compound concentration 1000.0 nM
[10] = biological target: Megakaryocyte-associated tyrosine-protein kinase (Homo sapiens) (UniProt P42679); conditions: Compound concentration 1000.0 nM
[11] = biological target: Serine/threonine-protein kinase DCLK3 (Homo sapiens) (UniProt Q9C098); conditions: Compound concentration 1000.0 nM
[12] = biological target: Ephrin type-A receptor 6 (Homo sapiens) (UniProt Q9UF33); conditions: Compound concentration 1000.0 nM
[13] = biological target: Ephrin type-B receptor 6 (Homo sapiens) (UniProt O15197); conditions: Compound concentration 1000.0 nM
[14] = biological target: Fibroblast growth factor receptor 4 (Homo sapiens) (UniProt P22455); conditions: Compound concentration 1000.0 nM
[15] = system: Receptor-type tyrosine-protein kinase FLT3 (Homo sapiens), P36888 [UNDEFINED MUTATION]; conditions: Compound concentration 1000.0 nM
[16] = biological target: Tyrosine-protein kinase JAK1 (Homo sapiens) (UniProt P23458); conditions: Compound concentration 1000.0 nM
[17] = system: Mast/stem cell growth factor receptor Kit (Homo sapiens), P10721 [L576P]; conditions: Compound concentration 1000.0 nM
[18] = biological target: Mitogen-activated protein kinase kinase kinase kinase 3 (Homo sapiens) (UniProt Q8IVH8); conditions: Compound concentration 1000.0 nM
[19] = biological target: MAP/microtubule affinity-regulating kinase 3 (Homo sapiens) (UniProt P27448); conditions: Compound concentration 1000.0 nM
[20] = biological target: Myosin light chain kinase, smooth muscle (Homo sapiens) (UniProt Q15746); conditions: Compound concentration 1000.0 nM
[21] = biological target: Serine/threonine-protein kinase Nek1 (Homo sapiens) (UniProt Q96PY6); conditions: Compound concentration 1000.0 nM
[22] = biological target: Serine/threonine-protein kinase Nek4 (Homo sapiens) (UniProt P51957); conditions: Compound concentration 1000.0 nM
[23] = biological target: Serine/threonine-protein kinase OSR1 (Homo sapiens) (UniProt O95747); conditions: Compound concentration 1000.0 nM
[24] = biological target: Platelet-derived growth factor receptor beta (Homo sapiens) (UniProt P09619); conditions: Compound concentration 1000.0 nM
[25] = biological target: Phosphatidylinositol 3-kinase C2 domain-containing subunit gamma (Homo sapiens) (UniProt O75747); conditions: Compound concentration 1000.0 nM
[26] = system: Phosphatidylinositol 4,5-bisphosphate 3-kinase catalytic subunit alpha isoform (Homo sapiens), P42336 [H1047Y]; conditions: Compound concentration 1000.0 nM
[27] = biological target: Phosphatidylinositol 4,5-bisphosphate 3-kinase catalytic subunit delta isoform (Homo sapiens) (UniProt O00329); conditions: Compound concentration 1000.0 nM
[28] = biological target: Phosphatidylinositol 4-phosphate 5-kinase type-1 alpha (Homo sapiens) (UniProt Q99755); conditions: Compound concentration 1000.0 nM
[29] = biological target: Phosphatidylinositol 5-phosphate 4-kinase type-2 beta (Homo sapiens) (UniProt P78356); conditions: Compound concentration 1000.0 nM
[30] = biological target: Serine/threonine-protein kinase D2 (Homo sapiens) (UniProt Q9BZL6); conditions: Compound concentration 1000.0 nM
[31] = biological target: Rho-associated protein kinase 2 (Homo sapiens) (UniProt O75116); conditions: Compound concentration 1000.0 nM
[32] = biological target: Angiopoietin-1 receptor (Homo sapiens) (UniProt Q02763); conditions: Compound concentration 1000.0 nM
[33] = biological target: Testis-specific serine/threonine-protein kinase 1 (Homo sapiens) (UniProt Q9BXA7); conditions: Compound concentration 1000.0 nM
[34] = biological target: Serine/threonine-protein kinase ULK1 (Homo sapiens) (UniProt O75385); conditions: Compound concentration 1000.0 nM
[35] = biological target: Phosphatidylinositol 3-kinase catalytic subunit type 3 (Homo sapiens) (UniProt Q8NEB9); conditions: Compound concentration 1000.0 nM
[36] = biological target: 5-hydroxytryptamine receptor 1E (Homo sapiens) (UniProt P28566); conditions: Compound concentration 10.0 uM
[37] = biological target: D(2) dopamine receptor (Homo sapiens) (UniProt P14416); conditions: Compound concentration 10.0 uM
[38] = biological target: T1, Muscarinic acetylcholine receptor M2 (Homo sapiens) (UniProt P08172); conditions: Compound concentration 10.0 uM
T1 sequence (whole entry): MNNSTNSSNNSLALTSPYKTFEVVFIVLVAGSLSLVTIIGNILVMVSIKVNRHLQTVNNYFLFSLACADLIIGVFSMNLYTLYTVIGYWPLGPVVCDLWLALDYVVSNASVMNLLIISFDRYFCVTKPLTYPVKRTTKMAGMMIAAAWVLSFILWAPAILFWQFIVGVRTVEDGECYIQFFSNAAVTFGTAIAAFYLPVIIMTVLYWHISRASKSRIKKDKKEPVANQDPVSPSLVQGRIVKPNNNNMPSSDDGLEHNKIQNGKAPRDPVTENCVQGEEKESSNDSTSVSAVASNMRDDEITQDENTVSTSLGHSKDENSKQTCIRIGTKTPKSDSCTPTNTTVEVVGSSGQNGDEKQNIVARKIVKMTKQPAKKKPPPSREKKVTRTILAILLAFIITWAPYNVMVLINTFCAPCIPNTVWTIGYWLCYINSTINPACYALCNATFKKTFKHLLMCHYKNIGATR

Chain of Serine/threonine-protein kinase DCLK3 (Homo sapiens) (Q9C098 whole entry): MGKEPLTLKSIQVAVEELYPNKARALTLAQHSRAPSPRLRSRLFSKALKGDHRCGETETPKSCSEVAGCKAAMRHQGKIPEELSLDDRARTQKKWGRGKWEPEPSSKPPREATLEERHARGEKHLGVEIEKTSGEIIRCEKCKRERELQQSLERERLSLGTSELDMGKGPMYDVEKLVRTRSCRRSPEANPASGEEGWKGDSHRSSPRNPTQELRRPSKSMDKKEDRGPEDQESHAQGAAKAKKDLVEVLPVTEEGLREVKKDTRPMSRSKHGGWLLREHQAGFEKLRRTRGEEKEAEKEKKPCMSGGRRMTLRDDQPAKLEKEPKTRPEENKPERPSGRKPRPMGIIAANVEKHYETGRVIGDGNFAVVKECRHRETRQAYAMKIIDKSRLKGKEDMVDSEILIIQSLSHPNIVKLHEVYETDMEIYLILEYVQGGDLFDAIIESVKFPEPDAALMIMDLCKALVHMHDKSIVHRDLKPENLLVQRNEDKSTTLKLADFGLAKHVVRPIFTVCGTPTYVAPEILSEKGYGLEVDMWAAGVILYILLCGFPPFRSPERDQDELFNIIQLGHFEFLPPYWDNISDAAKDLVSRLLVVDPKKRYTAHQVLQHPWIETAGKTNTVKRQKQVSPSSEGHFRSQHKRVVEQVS
Chain of Serine/threonine-protein kinase OSR1 (Homo sapiens) (O95747 2-527 limits assumed): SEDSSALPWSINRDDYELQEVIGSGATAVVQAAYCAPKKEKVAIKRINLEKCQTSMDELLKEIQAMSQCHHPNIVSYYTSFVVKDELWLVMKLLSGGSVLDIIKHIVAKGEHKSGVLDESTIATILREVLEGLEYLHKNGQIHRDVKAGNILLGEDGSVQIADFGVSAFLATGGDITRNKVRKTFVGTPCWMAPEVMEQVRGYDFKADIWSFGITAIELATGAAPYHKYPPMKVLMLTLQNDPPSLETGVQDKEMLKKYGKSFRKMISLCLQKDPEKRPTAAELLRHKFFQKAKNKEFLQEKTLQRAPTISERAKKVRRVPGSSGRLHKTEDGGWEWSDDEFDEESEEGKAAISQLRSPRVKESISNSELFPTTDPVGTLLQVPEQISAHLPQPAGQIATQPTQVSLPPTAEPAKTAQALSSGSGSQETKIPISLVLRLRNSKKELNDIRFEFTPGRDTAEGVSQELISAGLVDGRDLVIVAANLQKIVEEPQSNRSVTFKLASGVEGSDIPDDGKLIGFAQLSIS
Chain of Serine/threonine-protein kinase D2 (Homo sapiens) (Q9BZL6 whole entry): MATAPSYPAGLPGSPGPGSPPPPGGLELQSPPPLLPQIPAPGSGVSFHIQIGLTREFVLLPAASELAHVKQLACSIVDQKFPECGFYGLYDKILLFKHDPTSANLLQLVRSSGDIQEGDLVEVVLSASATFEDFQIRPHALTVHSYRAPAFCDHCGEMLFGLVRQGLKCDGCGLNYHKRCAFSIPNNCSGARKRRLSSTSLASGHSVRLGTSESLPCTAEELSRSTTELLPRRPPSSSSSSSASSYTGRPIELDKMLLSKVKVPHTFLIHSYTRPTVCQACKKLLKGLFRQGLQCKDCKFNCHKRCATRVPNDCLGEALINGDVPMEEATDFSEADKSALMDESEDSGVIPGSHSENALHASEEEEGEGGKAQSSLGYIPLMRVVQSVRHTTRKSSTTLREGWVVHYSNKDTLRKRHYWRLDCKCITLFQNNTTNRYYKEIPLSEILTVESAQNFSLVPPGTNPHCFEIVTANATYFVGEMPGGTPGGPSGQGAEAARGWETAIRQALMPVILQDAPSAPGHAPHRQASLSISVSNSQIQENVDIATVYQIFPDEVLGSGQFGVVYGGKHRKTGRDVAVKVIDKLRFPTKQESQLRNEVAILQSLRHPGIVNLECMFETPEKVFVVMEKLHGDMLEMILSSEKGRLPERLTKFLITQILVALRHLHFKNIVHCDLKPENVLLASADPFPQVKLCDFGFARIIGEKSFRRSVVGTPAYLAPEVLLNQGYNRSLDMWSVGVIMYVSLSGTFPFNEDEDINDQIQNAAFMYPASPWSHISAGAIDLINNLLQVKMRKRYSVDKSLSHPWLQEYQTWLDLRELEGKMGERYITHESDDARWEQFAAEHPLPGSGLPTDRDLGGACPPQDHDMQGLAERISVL
Chain of Rho-associated protein kinase 2 (Homo sapiens) (O75116 whole entry, looked up): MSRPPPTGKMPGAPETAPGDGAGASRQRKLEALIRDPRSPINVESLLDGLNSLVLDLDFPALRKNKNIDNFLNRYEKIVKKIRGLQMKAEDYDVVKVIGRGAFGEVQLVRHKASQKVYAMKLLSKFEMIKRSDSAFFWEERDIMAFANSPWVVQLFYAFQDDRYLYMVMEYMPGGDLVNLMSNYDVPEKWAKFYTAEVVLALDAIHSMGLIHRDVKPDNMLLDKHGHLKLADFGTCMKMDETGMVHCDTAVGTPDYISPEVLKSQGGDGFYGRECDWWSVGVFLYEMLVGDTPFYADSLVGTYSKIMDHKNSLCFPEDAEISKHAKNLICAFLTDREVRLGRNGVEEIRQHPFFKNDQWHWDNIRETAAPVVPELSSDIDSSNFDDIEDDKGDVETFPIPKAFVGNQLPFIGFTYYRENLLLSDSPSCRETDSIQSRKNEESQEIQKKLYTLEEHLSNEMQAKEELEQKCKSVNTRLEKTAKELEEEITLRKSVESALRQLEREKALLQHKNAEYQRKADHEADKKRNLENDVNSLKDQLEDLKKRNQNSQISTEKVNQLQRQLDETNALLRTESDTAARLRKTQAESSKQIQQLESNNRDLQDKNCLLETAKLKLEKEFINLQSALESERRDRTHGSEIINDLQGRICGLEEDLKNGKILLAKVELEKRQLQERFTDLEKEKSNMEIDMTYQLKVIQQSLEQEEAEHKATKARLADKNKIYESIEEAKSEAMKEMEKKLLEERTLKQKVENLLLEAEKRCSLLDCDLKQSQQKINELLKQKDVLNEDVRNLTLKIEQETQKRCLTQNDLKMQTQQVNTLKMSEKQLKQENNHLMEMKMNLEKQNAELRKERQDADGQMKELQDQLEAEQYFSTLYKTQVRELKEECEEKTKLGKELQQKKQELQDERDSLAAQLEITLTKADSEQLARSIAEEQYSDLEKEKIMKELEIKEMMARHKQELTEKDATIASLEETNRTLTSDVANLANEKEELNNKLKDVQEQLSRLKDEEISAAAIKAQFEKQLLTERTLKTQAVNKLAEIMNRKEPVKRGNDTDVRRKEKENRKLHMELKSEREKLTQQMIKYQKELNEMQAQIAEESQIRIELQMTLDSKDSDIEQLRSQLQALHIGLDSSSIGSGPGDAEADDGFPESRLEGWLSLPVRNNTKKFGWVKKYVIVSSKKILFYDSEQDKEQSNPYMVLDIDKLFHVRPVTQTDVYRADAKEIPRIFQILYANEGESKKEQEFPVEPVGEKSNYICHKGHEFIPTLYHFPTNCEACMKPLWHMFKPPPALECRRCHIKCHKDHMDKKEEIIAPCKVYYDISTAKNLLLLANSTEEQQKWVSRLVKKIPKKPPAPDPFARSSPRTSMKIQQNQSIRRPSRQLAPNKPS
Chain of Phosphatidylinositol 4-phosphate 5-kinase type-1 alpha (Homo sapiens) (Q99755 whole entry): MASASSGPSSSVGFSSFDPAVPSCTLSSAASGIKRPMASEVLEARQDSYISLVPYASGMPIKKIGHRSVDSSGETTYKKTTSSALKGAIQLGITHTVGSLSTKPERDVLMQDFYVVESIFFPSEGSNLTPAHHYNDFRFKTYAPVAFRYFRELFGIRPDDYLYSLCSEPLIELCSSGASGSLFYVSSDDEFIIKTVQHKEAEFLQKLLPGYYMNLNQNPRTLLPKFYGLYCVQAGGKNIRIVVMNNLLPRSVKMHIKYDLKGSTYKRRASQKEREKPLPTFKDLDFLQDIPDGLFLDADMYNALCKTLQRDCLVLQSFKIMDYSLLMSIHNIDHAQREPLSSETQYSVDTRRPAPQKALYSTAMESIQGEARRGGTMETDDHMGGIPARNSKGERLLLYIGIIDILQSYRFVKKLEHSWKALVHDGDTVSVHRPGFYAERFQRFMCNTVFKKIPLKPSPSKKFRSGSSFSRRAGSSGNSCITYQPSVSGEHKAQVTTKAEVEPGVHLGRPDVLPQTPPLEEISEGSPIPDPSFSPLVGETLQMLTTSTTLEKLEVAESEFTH
Chain of Receptor-type tyrosine-protein kinase FLT3 (Homo sapiens), P36888 [UNDEFINED MUTATION] (P36888 whole entry, looked up, change not shown): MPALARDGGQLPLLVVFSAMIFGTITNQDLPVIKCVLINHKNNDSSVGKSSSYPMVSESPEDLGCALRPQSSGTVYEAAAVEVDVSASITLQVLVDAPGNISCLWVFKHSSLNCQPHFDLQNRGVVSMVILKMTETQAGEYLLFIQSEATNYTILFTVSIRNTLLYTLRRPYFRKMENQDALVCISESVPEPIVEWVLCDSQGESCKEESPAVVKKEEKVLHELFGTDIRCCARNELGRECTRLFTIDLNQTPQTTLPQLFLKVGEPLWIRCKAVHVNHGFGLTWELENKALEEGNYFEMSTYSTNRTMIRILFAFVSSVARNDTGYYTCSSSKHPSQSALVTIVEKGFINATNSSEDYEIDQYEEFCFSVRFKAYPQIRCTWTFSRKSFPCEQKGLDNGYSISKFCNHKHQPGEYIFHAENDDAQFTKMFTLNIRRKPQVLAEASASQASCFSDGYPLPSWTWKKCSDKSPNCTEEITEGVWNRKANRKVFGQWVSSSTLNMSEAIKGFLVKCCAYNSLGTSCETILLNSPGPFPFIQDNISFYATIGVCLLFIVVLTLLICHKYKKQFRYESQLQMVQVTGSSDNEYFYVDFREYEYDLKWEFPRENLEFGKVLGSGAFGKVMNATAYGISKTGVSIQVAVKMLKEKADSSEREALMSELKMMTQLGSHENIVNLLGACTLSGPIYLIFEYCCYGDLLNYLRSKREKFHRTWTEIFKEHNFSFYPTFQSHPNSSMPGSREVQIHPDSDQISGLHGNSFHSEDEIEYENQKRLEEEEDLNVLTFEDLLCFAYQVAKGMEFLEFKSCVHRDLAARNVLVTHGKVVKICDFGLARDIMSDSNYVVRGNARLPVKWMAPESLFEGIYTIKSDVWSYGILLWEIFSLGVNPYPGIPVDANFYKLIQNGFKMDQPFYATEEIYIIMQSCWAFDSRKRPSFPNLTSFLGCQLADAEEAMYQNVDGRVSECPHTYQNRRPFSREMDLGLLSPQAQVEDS

Row | Compound | residual activity [1] [%] | residual activity [2] [%] | residual activity [3] [%] | residual activity [4] [%] | residual activity [5] [%] | residual activity [6] [%] | residual activity [7] [%] | residual activity [8] [%] | residual activity [9] [%] | residual activity [10] [%] | residual activity [11] [%] | residual activity [12] [%] | residual activity [13] [%] | residual activity [14] [%] | residual activity [15] [%] | residual activity [16] [%] | residual activity [17] [%] | residual activity [18] [%] | residual activity [19] [%] | residual activity [20] [%] | also measured
1 | O=C(Nc1cccnn1)N1CC(C/C=C/c2cncc(Oc3ccc(C(F)(F)F)cn3)n2)C1 | 67 | 67 | 100 | 100 | 63 | 81 | 100 | 100 | 72 | 59 | 100 | 100 | 87 | 100 | 100 | 100 | 88 | 100 | 100 | 73 | residual activity [21]: 100%; residual activity [22]: 95%; residual activity [23]: 71%; residual activity [24]: 81%; residual activity [25]: 100%; residual activity [26]: 100%; residual activity [27]: 64%; residual activity [28]: 100%; residual activity [29]: 96%; residual activity [30]: 100%; residual activity [31]: 90%; residual activity [32]: 84%; residual activity [33]: 100%; residual activity [34]: 79%; residual activity [35]: 88%; inhibition [36]: 0.84%; inhibition [37]: 13.7%; inhibition [38]: 20.7%
2 | O=C(Nc1cccnn1)N1CCC(=Cc2cccc(Oc3ccc(C(F)(F)F)cn3)c2)CC1 | 100 | 94 | 100 | 93 | 100 | 100 | 93 | 100 | 100 | 100 | 85 | 78 | 100 | 100 | 100 | 97 | 0 | 100 | 89 | 100 | residual activity [21]: 98%; residual activity [22]: 98%; residual activity [23]: 100%; residual activity [24]: 97%; residual activity [25]: 95%; residual activity [26]: 82%; residual activity [27]: 81%; residual activity [28]: 100%; residual activity [29]: 83%; residual activity [30]: 94%; residual activity [31]: 100%; residual activity [32]: 94%; residual activity [33]: 82%; residual activity [34]: 84%; residual activity [35]: 100%; inhibition [36]: 19%; inhibition [37]: 1.84%; inhibition [38]: 20.8%
